Measurements taken from ChEMBL document CHEMBL1201862, “PubChem BioAssay data set” (2004).
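Results reflect a 48-hour exposure of cells in 96-well plates to compound at five concentrations. The concentration for 50% growth inhibition is given as GI50.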 Calls of active or inactive are those of the source. Cut-off read from the data, not from the text of the source: active = GI50 up to about 1.1 µM and inactive = higher.

Legend:
Assay in all cases: NCI anticancer screen, dose series, 48 h
MOLT-4 = test system: MOLT-4
OVCAR-4 = test system: OVCAR-4
MDA-MB-231 = test system: MDA-MB-231
OVCAR-3 = test system: OVCAR-3
BT-549 = test system: BT-549
U-251 = test system: U-251
SNB-19 = test system: SNB-19
DU-145 = test system: DU-145
HOP-62 = test system: HOP-62
SW-620 = test system: SW-620
HT-29 = test system: HT-29
SF-539 = test system: SF-539
OVCAR-5 = test system: OVCAR-5
PC-3 = test system: PC-3
Hs-578T = test system: Hs-578T
SK-MEL-2 = test system: SK-MEL-2
MDA-N = test system: MDA-N
UACC-257 = test system: UACC-257
SF-268 = test system: SF-268
RPMI-8226 = test system: RPMI-8226
UO-31 = test system: UO-31
MCF7 = test system: MCF7
HCC 2998 = test system: HCC 2998
TK-10 = test system: TK-10
EKVX = test system: EKVX
IGROV-1 = test system: IGROV-1
SN12C = test system: SN12C
RXF 393 = test system: RXF 393
HL-60 = test system: HL-60
COLO 205 = test system: COLO 205
HCT-116 = test system: HCT-116
ACHN = test system: ACHN
786-0 = test system: 786-0
LOX IMVI = test system: LOX IMVI
SF-295 = test system: SF-295
HOP-92 = test system: HOP-92
NCI-H460 = test system: NCI-H460
SR = test system: SR
K562 = test system: K562
MDA-MB-435 = test system: MDA-MB-435
NCI-H226 = test system: NCI-H226
SK-MEL-28 = test system: SK-MEL-28
NCI-H522 = test system: NCI-H522
OVCAR-8 = test system: OVCAR-8
HCT-15 = test system: HCT-15
CCRF-CEM = test system: CCRF-CEM
SNB-75 = test system: SNB-75
KM12 = test system: KM12
NCI-H23 = test system: NCI-H23
A549 = test system: A549
NCI/ADR-RES = test system: NCI/ADR-RES
SK-OV-3 = test system: SK-OV-3
UACC-62 = test system: UACC-62
M14 = test system: M14
SK-MEL-5 = test system: SK-MEL-5
CAKI-1 = test system: CAKI-1
A498 = test system: A498
Malme-3M = test system: Malme-3M

SMILES: C=C1C(=O)CC2C(=O)C(C)(O)CC/C=C(\C)C(=O)CC12 (stereo not drawn)
- GI50 (MOLT-4): 4.14 µM (inactive)
- GI50 (OVCAR-4): 37.6 µM (inactive)
- GI50 (MDA-MB-231): 26.7 µM (inactive)
- GI50 (OVCAR-3): 17 µM (inactive)
- GI50 (BT-549): 15.8 µM (inactive)
- GI50 (U-251): > 49.5 µM (inactive)
- GI50 (SNB-19): > 91.4 µM (inactive)
- GI50 (DU-145): 18.2 µM (inactive)
- GI50 (HOP-62): > 78.9 µM (inactive)
- GI50 (SW-620): 6.37 µM (inactive)
- GI50 (HT-29): 17 µM (inactive)
- GI50 (SF-539): 18.2 µM (inactive)
- GI50 (OVCAR-5): 20.7 µM (inactive)
- GI50 (PC-3): 24.7 µM (inactive)
- GI50 (Hs-578T): 2.96 µM (inactive)
- GI50 (SK-MEL-2): 28.8 µM (inactive)
- GI50 (MDA-N): 17.3 µM (inactive)
- GI50 (UACC-257): 20 µM (inactive)
- GI50 (SF-268): 19.5 µM (inactive)
- GI50 (RPMI-8226): 15 µM (inactive)
- GI50 (UO-31): 6.7 µM (inactive)
- GI50 (MCF7): 11.2 µM (inactive)
- GI50 (HCC 2998): > 100 µM (inactive)
- GI50 (TK-10): 12.7 µM (inactive)
- GI50 (EKVX): 21.5 µM (inactive)
- GI50 (IGROV-1): 15.3 µM (inactive)
- GI50 (SN12C): 15.2 µM (inactive)
- GI50 (RXF 393): 14.4 µM (inactive)
- GI50 (HL-60): 1.53 µM (inactive)
- GI50 (COLO 205): 9.84 µM (inactive)
- GI50 (HCT-116): 10.3 µM (inactive)
- GI50 (ACHN): 10.2 µM (inactive)
- GI50 (786-0): 16.1 µM (inactive)
- GI50 (LOX IMVI): 16.3 µM (inactive)
- GI50 (SF-295): > 100 µM (inactive)
- GI50 (HOP-92): 23.6 µM (inactive)
- GI50 (NCI-H460): > 100 µM (inactive)
- GI50 (SR): 20.2 µM (inactive)
- GI50 (K562): 6.37 µM (inactive)
- GI50 (MDA-MB-435): 24.6 µM (inactive)
- GI50 (NCI-H226): 6.07 µM (inactive)
- GI50 (SK-MEL-28): 24.3 µM (inactive)
- GI50 (NCI-H522): 3.19 µM (inactive)
- GI50 (OVCAR-8): 20.1 µM (inactive)
- GI50 (HCT-15): 13.6 µM
- GI50 (CCRF-CEM): 4.23 µM (inactive)
- GI50 (SNB-75): > 41.9 µM (inactive)
- GI50 (KM12): 32.6 µM (inactive)
- GI50 (NCI-H23): 16.9 µM (inactive)
- GI50 (A549): 60.1 µM (inactive)
- GI50 (NCI/ADR-RES): 38.5 µM (inactive)
- GI50 (SK-OV-3): > 100 µM (inactive)
- GI50 (UACC-62): 30.3 µM (inactive)
- GI50 (M14): 16.4 µM (inactive)
- GI50 (SK-MEL-5): 14.7 µM (inactive)
- GI50 (CAKI-1): 3.17 µM (inactive)
- GI50 (A498): > 86.9 µM (inactive)
- GI50 (Malme-3M): 11.7 µM (inactive)
